Counter-ions that a name gives are not always drawn.
Columns and labels:
writhing behavior = assay: Analgesic action by a writhing method using acetic acid; format: in vivo, Male mice of a ddY strain; details: sc; statistically minimum effective dose; 0.6% acetic acid ip 15 minutes after the drug, writhing counted for ten minutes; mice
5HT1A = biological target: T1, 5HT1A (Homo sapiens, UniProt P08908); assay: Serotonin (5HT) receptor binding action (RBA; in vitro), 5HT1A; details: method of JP98/01481 or JP-A 10-281752
T1 sequence (P08908 1-422): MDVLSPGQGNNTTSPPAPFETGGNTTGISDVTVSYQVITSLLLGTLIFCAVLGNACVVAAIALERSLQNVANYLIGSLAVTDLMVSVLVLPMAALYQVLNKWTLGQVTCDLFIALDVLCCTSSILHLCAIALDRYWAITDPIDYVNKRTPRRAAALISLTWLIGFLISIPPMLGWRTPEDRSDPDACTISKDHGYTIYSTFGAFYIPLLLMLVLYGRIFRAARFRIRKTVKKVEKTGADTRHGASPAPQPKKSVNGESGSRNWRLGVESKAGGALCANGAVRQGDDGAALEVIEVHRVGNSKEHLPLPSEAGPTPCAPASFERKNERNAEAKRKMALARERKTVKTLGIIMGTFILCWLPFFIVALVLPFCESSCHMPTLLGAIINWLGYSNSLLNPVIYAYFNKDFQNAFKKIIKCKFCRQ

5HT2 = 5HT2 (Homo sapiens, UniProt P28223); assay: Serotonin (5HT) receptor binding action (RBA; in vitro), 5HT2; details: method of JP98/01481 or JP-A 10-281752
[1] = Muscle relaxing action (in vivo); details: method of JP98/01481 or JP-A 10-281752
Text: There are also shown a serotonin (5HT) receptor binding action (RBA; in vitro) and a muscle relaxing action (in vivo) measured according to a method described in JP98/01481 or JP-A 10-281752. (In the table, "n.t." means "not tested").

Sequence of 5HT2 (P28223 whole entry, species assumed): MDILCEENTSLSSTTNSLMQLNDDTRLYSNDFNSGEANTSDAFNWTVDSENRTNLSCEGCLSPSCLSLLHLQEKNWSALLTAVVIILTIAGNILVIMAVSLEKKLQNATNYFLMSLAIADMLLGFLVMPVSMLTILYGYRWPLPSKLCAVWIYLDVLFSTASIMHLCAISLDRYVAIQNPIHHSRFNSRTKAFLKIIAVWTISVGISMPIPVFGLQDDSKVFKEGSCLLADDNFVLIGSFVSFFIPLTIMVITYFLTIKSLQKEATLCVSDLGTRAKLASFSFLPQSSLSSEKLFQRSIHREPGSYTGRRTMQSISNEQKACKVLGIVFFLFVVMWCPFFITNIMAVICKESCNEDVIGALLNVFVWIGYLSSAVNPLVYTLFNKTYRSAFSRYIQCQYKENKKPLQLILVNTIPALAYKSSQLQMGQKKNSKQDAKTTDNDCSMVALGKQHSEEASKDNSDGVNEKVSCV

CCN1CCN(c2nc(-c3ccc(CCCO)c(OC)c3)cc3ccccc23)CC1.Cl [(20), 1-(4-ethylpiperazin-1-yl)-3-(3-methoxy-4-hydroxypropylphenyl)isoquinoline hydrochloride]
Analgesic Action (minimum effective dose) (writhing behavior): 3 mg/kg
Ki (5HT1A): 7.9 nM
Ki (5HT2): 10.9 nM
Muscle-Relaxing Action (po) [1]: 10 mg/kg

CC(=O)NCc1ccc2ccn(C3CCN(CCc4ccc(F)cc4)CC3)c2c1 [(1), 1-[1-(4-Fluorophenethyl)piperidin-4-yl]-6-(N-acetylaminomethyl)indole]
Analgesic Action (minimum effective dose) (writhing behavior): 0.3 mg/kg
Ki (5HT1A): 0.51 nM
Ki (5HT2): 1.38 nM
Muscle-Relaxing Action (ip) [1]: 0.3 mg/kg
Muscle-Relaxing Action (po) [1]: 1 mg/kg

COc1ccccc1N1CCN(CCN(C(=O)C2CCCCC2)c2ccccn2)CC1 [WAY-100,635, reference compound]
Analgesic Action (minimum effective dose) (writhing behavior): 3 mg/kg
Ki (5HT2): > 200 nM
Muscle-Relaxing Action (ip) [1]: > 10 mg/kg

CC(=O)NCc1ccc2ccn(C3CCN(CCc4ccccc4F)CC3)c2c1 [(4), 1-[1-(2-fluorophenethyl)piperidin-4-yl]-6-(N-acetylaminomethyl)indole]
Analgesic Action (minimum effective dose) (writhing behavior): 3 mg/kg
Ki (5HT1A): 1.58 nM
Ki (5HT2): 0.75 nM
Muscle-Relaxing Action (po) [1]: 10 mg/kg

CCN1CCN(c2nc(-c3ccc(OCC(C)O)cc3)cc3sccc23)CC1.Cl (centres unmarked) [(24), 4-(4-ethylpiperazin-1-yl)-6-[4-(2-hydroxypropoxy)phenyl]thieno[3,2-c]pyridine hydrochloride]
Analgesic Action (minimum effective dose) (writhing behavior): 1 mg/kg
Ki (5HT1A): 27.9 nM
Ki (5HT2): 0.9 nM
Muscle-Relaxing Action (ip) [1]: 1 mg/kg
Muscle-Relaxing Action (po) [1]: 3 mg/kg

CCN1CCN(c2nc(-c3ccc(CCC(C)(C)O)c(F)c3)cc3ccccc23)CC1.Cl [(19), 1-(4-ethylpiperazin-1-yl)-3-[3-fluoro-4-(3-hydroxy-3-methylbutyl)phenyl]isoquinoline hydrochloride]
Analgesic Action (minimum effective dose) (writhing behavior): 1 mg/kg
Ki (5HT1A): 31.2 nM
Ki (5HT2): 0.7 nM
Muscle-Relaxing Action (ip) [1]: < 10 mg/kg
Muscle-Relaxing Action (po) [1]: 3 mg/kg

CNC(=O)Cc1ccc2ccn(C3CCN(CCc4ccccc4F)CC3)c2c1 [(10), 1-[1-(2-fluorophenethyl)piperidin-4-yl]-6-(N-methylamidemethyl)indole]
Analgesic Action (minimum effective dose) (writhing behavior): 3 mg/kg
Ki (5HT1A): 4.02 nM
Ki (5HT2): 1.23 nM
Muscle-Relaxing Action (ip) [1]: 3 mg/kg
Muscle-Relaxing Action (po) [1]: < 1 mg/kg

COc1cccc(C(O)C2CCN(CCc3ccc(F)cc3)CC2)c1OC (centres unmarked) [MDL-100,907, reference compound]
Analgesic Action (minimum effective dose) (writhing behavior): 3 mg/kg
Muscle-Relaxing Action (ip) [1]: 0.3 mg/kg
Muscle-Relaxing Action (po) [1]: 1 mg/kg

O=C(Cc1ccc2ccn(C3CCN(CCc4ccccc4F)CC3)c2c1)NCCO [(12), 1-[1-(2-fluorophenethyl)piperidin-4-yl]-6-(N-hydroxyethylamidemethyl)indole]
Analgesic Action (minimum effective dose) (writhing behavior): 10 mg/kg
Muscle-Relaxing Action (po) [1]: > 10 mg/kg

CN1CC[C@]23c4c5ccc(O)c4O[C@H]2[C@@H](O)C=C[C@H]3[C@H]1C5.Cl [Morphine Hydrochloride, morphine hydrochloride, reference compound]
Analgesic Action (minimum effective dose) (writhing behavior): 1 mg/kg
Muscle-Relaxing Action (ip) [1]: Ineffective (Strain Induced)
Muscle-Relaxing Action (po) [1]: Ineffective (Strain Induced)

CCN1CCN(c2nc(-c3ccc(C(C)O)cc3)cc3sccc23)CC1.O=C(O)C(=O)O (centres unmarked) [(26), 4-(4-ethylpiperazin-1-yl)-6-[4-(1-hydroxyethyl)phenyl]thieno[3,2-c]pyridine oxalate]
Analgesic Action (minimum effective dose) (writhing behavior): 1 mg/kg
Ki (5HT1A): 15 nM
Ki (5HT2): 16.9 nM
Muscle-Relaxing Action (po) [1]: < 3 mg/kg

CCN1CCN(c2nc(-c3ccc(OCCO)c(C#N)c3)cc3ccccc23)CC1.Cl [(21), 1-(4-ethylpiperazin-1-yl)-3-(3-cyano-4-hydroxyethoxyphenyl)isoquinoline hydrochloride]
Analgesic Action (minimum effective dose) (writhing behavior): 1 mg/kg
Ki (5HT1A): 13.4 nM
Ki (5HT2): 4.5 nM
Muscle-Relaxing Action (ip) [1]: 10 mg/kg

CC(=O)NCc1ccc2c(c1)N(C1CCN(CCc3ccc(F)cc3)CC1)CC2 [(14), 1-[1-(4-fluorophenethyl)piperidin-4-yl]-6-(N-acetylaminomethyl)indoline]
Analgesic Action (minimum effective dose) (writhing behavior): 0.3 mg/kg
Ki (5HT1A): 6.43 nM
Ki (5HT2): 0.43 nM
Muscle-Relaxing Action (ip) [1]: 0.3 mg/kg
Muscle-Relaxing Action (po) [1]: 0.3 mg/kg

COc1ccc(CCN2CCC(n3ccc4ccc(CNC(C)=O)cc43)CC2)cc1 [(3), 1-[1-(4-methoxyphenethyl)piperidin-4-yl]-6-(N-acetylaminomethyl)indole]
Analgesic Action (minimum effective dose) (writhing behavior): 10 mg/kg
Ki (5HT1A): 0.27 nM
Ki (5HT2): > 20 nM

NC(=O)Cc1ccc2ccn(C3CCN(CCc4ccc(F)cc4)CC3)c2c1 [(8), 1-[1-(4-fluorophenethyl)piperidin-4-yl]-6-amidemethylindole]
Analgesic Action (minimum effective dose) (writhing behavior): > 3 mg/kg
Muscle-Relaxing Action (po) [1]: 3 mg/kg

NC(=O)Cc1ccc2ccn(C3CCN(CCc4ccccc4F)CC3)c2c1 [(13), 1-[1-(2-fluorophenethyl)piperidin-4-yl]-6-amidemethylindole]
Analgesic Action (minimum effective dose) (writhing behavior): 3 mg/kg
Ki (5HT1A): 0.59 nM
Ki (5HT2): 2.81 nM
Muscle-Relaxing Action (ip) [1]: 1 mg/kg
Muscle-Relaxing Action (po) [1]: 3 mg/kg

CCCNC(=O)c1ccc(-c2cc3ccccc3c(N3CCN(CC)CC3)n2)cc1 [(18), 1-(4-ethylpiperazin-1-yl) -3-[4-(N-propylamide)phenyl]isoquinoline hydrochloride]
Analgesic Action (minimum effective dose) (writhing behavior): 1 mg/kg
Ki (5HT1A): 14.6 nM
Ki (5HT2): 1.1 nM
Muscle-Relaxing Action (ip) [1]: > 10 mg/kg
Muscle-Relaxing Action (po) [1]: 3 mg/kg

CCNC(=O)Cc1ccc2ccn(C3CCN(CCc4ccccc4F)CC3)c2c1 [(11), 1-[1-(2-fluorophenethyl)piperidin-4-yl]-6-(N-ethylamidemethyl)indole]
Analgesic Action (minimum effective dose) (writhing behavior): 3 mg/kg
Muscle-Relaxing Action (po) [1]: 10 mg/kg

CCN1CCN(c2nc(-c3ccc(OCCO)cc3)cc3ccccc23)CC1 [(16), 1-(4-ethylpiperazin-1-yl)-3-(4-hydroxyethoxyphenyl)isoquinoline]
Analgesic Action (minimum effective dose) (writhing behavior): 1 mg/kg
Ki (5HT1A): 31.5 nM
Ki (5HT2): 4.2 nM
Muscle-Relaxing Action (ip) [1]: 1 mg/kg
Muscle-Relaxing Action (po) [1]: 3 mg/kg

CC(C)(O)COc1ccc(-c2cc3sccc3c(N3CCN(CCO)CC3)n2)cc1.Cl [(27), 4-(4-hydroxyethylpiperazin-1-yl)-6-[4-(2-hydroxy-2-methylpropoxy)phenyl]thieno[3,2-c]pyridine hydrochloride]
Analgesic Action (minimum effective dose) (writhing behavior): 1 mg/kg
Ki (5HT1A): 1530 nM
Ki (5HT2): 0.35 nM

CCCS(=O)(=O)NCc1ccc(-c2cc3ccccc3c(N3CCN(CC)CC3)n2)cc1Cl.Cl [(23), 1-(4-ethylpiperazin-1-yl)-3-(3-chloro-4-propylsulfonylaminomethylphenyl)isoquinoline hydrochloride]
Analgesic Action (minimum effective dose) (writhing behavior): 3 mg/kg
Ki (5HT1A): 0.9 nM
Ki (5HT2): 0.7 nM
Muscle-Relaxing Action (po) [1]: > 30 mg/kg

CCC(=O)NCc1ccc2ccn(C3CCN(CCc4ccc(F)cc4)CC3)c2c1 [(2), 1-[1-(4-fluorophenethyl)piperidin-4-yl]-6-(N-propionylaminomethyl)indole]
Analgesic Action (minimum effective dose) (writhing behavior): 3 mg/kg
Ki (5HT1A): 1 nM
Ki (5HT2): 2.6 nM
Muscle-Relaxing Action (ip) [1]: 0.3 mg/kg
Muscle-Relaxing Action (po) [1]: 3 mg/kg

O=C(Cc1ccc2ccn(C3CCN(CCc4ccc(F)cc4)CC3)c2c1)NCCO [(6), 1-[1-(4-fluorophenethyl)piperidin-4-yl]-6-(N-hydroxyethylamidemethyl)indole]
Analgesic Action (minimum effective dose) (writhing behavior): > 10 mg/kg
Muscle-Relaxing Action (po) [1]: 10 mg/kg

CCN1CCN(c2nc(-c3cccc(CCCO)c3)cc3ccccc23)CC1 [(22), 1-(4-ethylpiperazin-1-yl)-3-(3-hydroxypropylphenyl)isoquinoline hydrochloride]
Analgesic Action (minimum effective dose) (writhing behavior): 3 mg/kg
Ki (5HT1A): 54.5 nM
Ki (5HT2): 17.4 nM

CNC(=O)Cc1ccc2ccn(C3CCN(CCc4ccc(F)cc4)CC3)c2c1 [(9), 1-[1-(4-fluorophenethyl)piperidin-4-yl]-6-(N-methylamidemethyl)indole]
Analgesic Action (minimum effective dose) (writhing behavior): 1 mg/kg
Muscle-Relaxing Action (ip) [1]: 0.3 mg/kg
Muscle-Relaxing Action (po) [1]: 3 mg/kg

CCN1CCN(c2nc(-c3ccc(OC)cc3)cc3ccccc23)CC1 [(15), 1-(4-ethylpiperazin-1-yl)-3-(4-methoxyphenyl)isoquinoline]
Analgesic Action (minimum effective dose) (writhing behavior): 3 mg/kg
Ki (5HT1A): 59.9 nM
Ki (5HT2): 11.1 nM

CN(C)C(=O)Cc1ccc2ccn(C3CCN(CCc4ccc(F)cc4)CC3)c2c1 [(7), 1-[1-(4-fluorophenethyl)piperidin-4-yl]-6-(N,N-dimethylamidemethyl)indole oxalate]
Analgesic Action (minimum effective dose) (writhing behavior): > 10 mg/kg

— patent publication EP1123702A1, “ANALGESICS” (Eisai Co., Ltd., priority 1998, dated 2000)
